Patent publication US11779602B2, “Methods of use for CAR T cells” (ENDOCYTE, INC., priority 2018, dated 2023)

What was measured:
HOS-FRα tumor = test: CRS toxicity and sodium fluorescein rescue in HOS-FRα tumor-bearing mice; assay type: in vivo
Procedure: All animal care and use were performed according to NIH guidelines and in compliance with protocols approved by the Purdue University Animal Use and Care Committee. Female 4 to 5-week-old NOD/SCID gamma (NSG™) mice (stock number: 005557) were purchased from The Jackson Laboratory (Bar Harbor, Me.). Unless specifically indicated, all animals were maintained on a FA-deficient diet (TestDiet, St. Louis, Mo.) upon arrival and throughout the study. To establish subcutaneous xenografts, MDA-MB-231 and HOS-FRα were implanted in the right flank region at 2.5×10^6 and 1×10^6 cells per animal, respectively. For intravenous xenografts, THP1-FRβ cells were inoculated at 5×10^6 cells per animal. Subcutaneous tumors were measured 2-3 times per week with a caliper and calculated using the ellipsoidal formula (length×width^2)/2. […] All animal doses (CAR-T cells, EC17, sodium fluorescein) were given intravenously.
Depending on the CAR-T cell dose and how EC17 is administered, tumor-bearing mice receiving FITC-specific CAR-T cells can experience severe CRS and varying degrees of body weight loss. Therefore, a CRS grading system (0-5 scale) was developed to empirically assess CRS toxicity from animals' gross morphology and social behavior to allow for better timing of CRS rescue. While grades 0 and 5 indicated normal (no CRS) or death (due to severe CRS), respectively, grades 1, 2, and 3-4 were considered mild, light-to-moderate, and severe CRS (FIG. 57A). In addition, all EC17 doses were intentionally given towards the end of any given day to allow potential CRS symptoms to develop overnight. On the days immediately following each EC17 dose, animals were scored and rescue agents such as sodium fluorescein, folic acid and leucovorin were used to mitigate CRS toxicity. In this particular instance, a batch of E2 CAR-T cells with a high EGFRt+CD4/CD8 ratio (˜93:7) was given to HOS-FRα tumor-bearing mice at a mixture of ˜2.5 million CD8 and ˜33 million CD4 on day 0 (FIG. 57B). […]

[1] = test system: FR+ (KB, MDA-MB-231, HOS-FRα^fLuc, THP1-FRβ) tumor cell lines; test: CAR-T cell exhaustion markers and target cell apoptosis in co-culture with EC17-preloaded targets; assay type: cell-based, human; settings: EC17 pre-loading 0.1 or 10 nM, E/T 1:2, day 2
Procedure: To study CAR-T cell activation in the presence of FR+ tumor cell targets (FIGS. 53A-D), co-culture experiments were initially carried out with MDA-MB-231, THP1-FRβ and HOS-FRα. […] After 24 hours of co-culture, the surface expression of T cell activation markers CD69, CD137 (4-1BB), and PD1 were analyzed by flow cytometry. For T cell exhaustion studies (FIGS. 54A-C), FR+ (KB, MDA-MB-231, HOS-FRα^fLuc, THP1-FRβ) and FR-negative (HOS-143b^fLuc, THP1-FG12) tumor cell lines were used as targets. Here, target cells were incubated on day 0 without or with 0.1 and 10 nM of EC17 for 30 min at 37° C. and the status of EC17 “pre-loading” was assessed by counterstaining cell-surface EC17 with an anti-FITC antibody (FIG. 61A). Three days later, the surface expression of PD1, LAG3, and TIM3 inhibitor receptors on co-cultured CAR-T cells were analyzed and higher frequencies of double- and triple-positive cells were considered approaching an exhausted phenotype.
To examine antigen-dependent CAR-T cell activation, MDA-MB-231, THP1-FRβ and HOS-FRα cells were preloaded with 100 nM EC17 over 30 min. […] After 24 hours of co-culture, we measured the surface expression of T cell activation markers CD69, CD137 (4-1BB) and PD1 (FIGS. 53A-D). […] Three days later, co-cultured CAR-T cells were measured for upregulation and co-expression of T cell activation/exhaustion markers PD1, LAGS and TIM3. […]

## NC1=NC2N=CC(CNc3ccc(C(=O)N[C@@H](CCC(=O)NCCNC(=S)Nc4ccc(-c5c6ccc(=O)cc-6oc6cc(O)ccc56)c(C(=O)O)c4)C(=O)O)cc3)=NC2C(=O)N1 (stereo partly drawn) [EC17, FA-(γ)-ethylenediamine-FITC]
HOS-FRα tumor; day 13, after EC17 500 nmol/kg on day 12
  CRS grade (0-5 scale): 3 grade
HOS-FRα tumor; days 4 and 11, after EC17 500 and 100 nmol/kg on days 3 and 10, ~35 million CAR-T cells
  CRS grade (0-5 scale): 1-2 grade
[1]
  target cell apoptosis (Annexin V+): dose-dependent apoptosis (Annexin V+) was seen in all FR+ tumor cell lines
